Experimental findings from PubChem BioAssay (NCI) are described below.

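Following 48 hours of exposure in 96-well plates, responses at five concentrations were used to interpolate endpoints linearly. GI50 marks 50% less growth. Definition used: TGI = concentration required for complete inhibition of growth.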 Some results are limits rather than exact numbers.

Usually GI50 stands for the concentration at which growth is held to half of that of the control. One may read the TGI as the concentration giving total growth inhibition. A low value points to greater sensitivity of the cells.

Some test systems named below: OVCAR-5 ovarian; MDA-MB-435; SF-295 CNS; LOX IMVI melanoma; CAKI-1 renal; MOLT-4 leukemia; SK-OV-3 ovarian; HL-60(TB) leukemia; HS 578T breast; MDA-MB-231 breast.
Assay in all cases: DTP human tumour cell line panel, 48 h

As to `CN(C)CCNc1c2c(c(NCCN(C)C)c3c(CO)c[nH]c13)C(=O)c1ccccc1C2=O`, the GI50 with OVCAR-5 ovarian is 12.7 µM; with MDA-MB-435, 4.56 µM; with SF-295 CNS, 3.39 µM; in the test with LOX IMVI melanoma it was 1.97 µM; with CAKI-1 renal, 4.64 µM; in the test with MOLT-4 leukemia, 0.371 µM. Besides, the GI50 was 4.64 µM in the test on SK-OV-3 ovarian, 29.9 µM in the test on HL-60(TB) leukemia, 3.36 µM with HS 578T breast and 2.29 µM in the test on MDA-MB-231 breast. The TGI with OVCAR-5 ovarian stood at 33.5 µM; in the test on MDA-MB-435, 20.6 µM; in the test on SF-295 CNS, 17.8 µM; with LOX IMVI melanoma, 10 µM; in the test with CAKI-1 renal it was 19.2 µM; in the test with SK-OV-3 ovarian, 20.8 µM. In addition, the TGI in the test with HL-60(TB) leukemia is > 100 µM; in the test on HS 578T breast, 13.6 µM; with MDA-MB-231 breast, 10.7 µM.

For the compound `C=C(C)[C@@H]1CC[C@]2(C)[C@H](CC=C3[C@@H]4[C@H](C)[C@@H](C)CC[C@]4(CO)CC[C@]32C)[C@@]1(C)CCCN`, the GI50 with OVCAR-5 ovarian is 1.76 µM; with MDA-MB-435 it was 0.953 µM; with SF-295 CNS, 0.847 µM; with LOX IMVI melanoma it was 0.859 µM; with CAKI-1 renal it was 1.69 µM; in the test on MOLT-4 leukemia, 1.35 µM. The GI50 in the test on SK-OV-3 ovarian is 4.42 µM; with HL-60(TB) leukemia, 1.03 µM; in the test with HS 578T breast, 0.994 µM; with MDA-MB-231 breast, 0.957 µM. The TGI was determined as 6.15 µM in the test on OVCAR-5 ovarian; 1.81 µM in the test with MDA-MB-435; 1.58 µM with SF-295 CNS; 1.57 µM in the test with LOX IMVI melanoma; 5.58 µM in the test with CAKI-1 renal; 4.07 µM in the test on MOLT-4 leukemia. Moreover, the TGI turned out to be 12 µM in the test on SK-OV-3 ovarian, 2.27 µM with HL-60(TB) leukemia, 2.23 µM in the test with HS 578T breast and 1.71 µM with MDA-MB-231 breast.

In the case of `CC1(C)N=C(N)N=C(N)N1c1ccc(OCCCCNC(=O)c2ccc(S(=O)(=O)F)cc2)c(Cl)c1`, the GI50 in the test on OVCAR-5 ovarian is > 100 µM; with MDA-MB-435, 4.87 µM; with SF-295 CNS, 51.1 µM; with LOX IMVI melanoma, 1.9 µM; in the test with CAKI-1 renal, 43.8 µM; with MOLT-4 leukemia it was 21.3 µM. Moreover, the GI50 in the test on SK-OV-3 ovarian was > 100 µM; with HL-60(TB) leukemia it was 1.84 µM; with HS 578T breast, > 100 µM; in the test on MDA-MB-231 breast, 66.2 µM. Besides, the TGI with OVCAR-5 ovarian, with MDA-MB-435, in the test with SF-295 CNS, in the test with LOX IMVI melanoma, with CAKI-1 renal and in the test on MOLT-4 leukemia was > 100 µM throughout. Besides, the TGI with SK-OV-3 ovarian, in the test with HL-60(TB) leukemia, in the test on HS 578T breast and with MDA-MB-231 breast was > 100 µM each time.

`CN1N=Nc2c(C(F)(F)F)nn(-c3ccccc3)c2N(C)C1=O`: the GI50 with OVCAR-5 ovarian, with MDA-MB-435, in the test with SF-295 CNS, in the test on LOX IMVI melanoma, in the test on CAKI-1 renal and in the test on SK-OV-3 ovarian was > 100 µM throughout. Also, the GI50 was > 32 µM with HL-60(TB) leukemia, > 100 µM in the test on HS 578T breast and > 100 µM in the test with MDA-MB-231 breast. Also, the TGI with OVCAR-5 ovarian was > 100 µM; in the test on MDA-MB-435 it was > 100 µM; with SF-295 CNS, > 100 µM; in the test on LOX IMVI melanoma, > 100 µM; in the test with CAKI-1 renal, > 100 µM; with MOLT-4 leukemia it was > 45.3 µM. For the same compound, the TGI with SK-OV-3 ovarian is > 100 µM; in the test with HL-60(TB) leukemia, > 52.7 µM; in the test with HS 578T breast, > 100 µM; with MDA-MB-231 breast, > 100 µM.

As to `N#C/C(=C\c1cccnc1)c1nc2ccccc2o1`, the GI50 with OVCAR-5 ovarian, in the test on MDA-MB-435, in the test on SF-295 CNS, in the test with LOX IMVI melanoma, in the test on CAKI-1 renal and in the test with MOLT-4 leukemia was > 100 µM throughout. The GI50 in the test with SK-OV-3 ovarian, in the test on HL-60(TB) leukemia, with HS 578T breast and in the test with MDA-MB-231 breast was > 100 µM each time. Further, the TGI with OVCAR-5 ovarian, in the test with MDA-MB-435, in the test on SF-295 CNS, in the test on LOX IMVI melanoma, with CAKI-1 renal and with MOLT-4 leukemia was > 100 µM each time. Also, the TGI with SK-OV-3 ovarian, in the test on HL-60(TB) leukemia, in the test on HS 578T breast and in the test on MDA-MB-231 breast was > 100 µM throughout.

Take `COc1cc(N=Nc2cccc(S(N)(=O)=O)c2)c2ccccc2c1N`: the TGI with OVCAR-5 ovarian amounted to 33.3 µM; in the test on MDA-MB-435, 3.71 µM; in the test with SF-295 CNS, 26.6 µM; in the test with LOX IMVI melanoma it was 18.1 µM; with CAKI-1 renal, 20.8 µM; in the test on MOLT-4 leukemia, 25.2 µM. Further, the TGI with SK-OV-3 ovarian was 30.7 µM; with HL-60(TB) leukemia, 23.6 µM; with HS 578T breast, > 27.2 µM; with MDA-MB-231 breast it was 26.5 µM.

Take `O=C(Nc1ccc(-c2ccnc(Nc3ccc(N4CCOCC4)cc3)n2)cc1)C1CCCN1` (stereo not drawn): the GI50 with OVCAR-5 ovarian was 14.6 µM; in the test with MDA-MB-435, 6.39 µM; in the test with SF-295 CNS, 4.18 µM; in the test on LOX IMVI melanoma, 2.27 µM; in the test on CAKI-1 renal it was 3.29 µM; with MOLT-4 leukemia it was 3.04 µM. Besides, the GI50 in the test with SK-OV-3 ovarian is 11.8 µM; in the test on HL-60(TB) leukemia it was 4.5 µM; in the test on HS 578T breast, 3 µM; in the test with MDA-MB-231 breast, 7.77 µM. Moreover, the TGI in the test on OVCAR-5 ovarian is 30.7 µM; in the test on MDA-MB-435 it was 21.5 µM; in the test on SF-295 CNS it was 20.4 µM; with LOX IMVI melanoma, 13.9 µM; in the test on CAKI-1 renal it was 17.7 µM; in the test with MOLT-4 leukemia, 33.2 µM. Besides, the TGI amounted to 32.8 µM in the test on SK-OV-3 ovarian, 25.5 µM in the test with HL-60(TB) leukemia, 24.8 µM in the test on HS 578T breast and 23.1 µM with MDA-MB-231 breast.

For the compound `N#CC1CCc2c(c(-c3cn[nH]c3C(F)(F)F)nc3c(F)cc4[nH]ncc4c23)C1` (stereo not drawn), the GI50 was 13.7 µM in the test on OVCAR-5 ovarian; 4.43 µM in the test with MDA-MB-435; 14 µM with SF-295 CNS; 3.45 µM with LOX IMVI melanoma; 18.6 µM with CAKI-1 renal; 3.49 µM in the test on MOLT-4 leukemia. Also, the GI50 with SK-OV-3 ovarian was 3.21 µM; in the test on HL-60(TB) leukemia it was 2.56 µM; in the test on HS 578T breast it was 3.16 µM; in the test with MDA-MB-231 breast, 4.96 µM. Moreover, the TGI was 57.7 µM with OVCAR-5 ovarian; 41.1 µM in the test on MDA-MB-435; 46.2 µM with SF-295 CNS; 15.3 µM with LOX IMVI melanoma; > 100 µM in the test on CAKI-1 renal; 42.7 µM in the test with MOLT-4 leukemia. Further, the TGI with SK-OV-3 ovarian turned out to be 10.5 µM; in the test on HL-60(TB) leukemia, 16.9 µM; in the test on HS 578T breast it was 11.5 µM; with MDA-MB-231 breast it was 38.1 µM.
